Source: ChEMBL document CHEMBL1697781, “Assessment of the health effects of chemicals in humans: II. Construction of an adverse effects database for QSAR modeling” (Curr Drug Discov Technol, 2004)

What was measured:
Conditions in all cases: human; call rule not given here
[1] = tested on: Hepatotoxicity; assay: FDA HLAED, liver enzyme composite activity
[2] = tested on: Hepatotoxicity; assay: FDA HLAED, alkaline phosphatase increase
[3] = tested on: Hepatotoxicity; assay: FDA HLAED, serum glutamic oxaloacetic transaminase (SGOT) increase
[4] = tested on: Hepatotoxicity; assay: FDA HLAED, serum glutamic pyruvic transaminase (SGPT) increase
[5] = tested on: Hepatotoxicity; assay: FDA HLAED, lactate dehydrogenase (LDH) increase
[6] = tested on: Hepatotoxicity; assay: FDA HLAED, gamma-glutamyl transferase (GGT) increase
For GGT Increase - Index Value in this document: reference of the scale not given here.
For LDH Increase - Index Value in this document: reference of the scale not given here.

CC1=C(/C=C/C(C)=C/C=C/C(C)=C\C(=O)O)C(C)(C)CCC1 [ISOTRETINOIN]
Composite Activity - Active [1]: 4 | Composite Activity - Marginal [1]: 0 | Composite Activity - Score [1]: Active | Alkaline Phosphatase Increase - Activity Score [2]: Active | Alkaline Phosphatase Increase - Index Value [2]: 45.7 | Alkaline Phosphatase Increase - Number of Reports [2]: >= 4 | SGOT Increase - Activity Score [3]: Active | SGOT Increase - Index Value [3]: 98.4 | SGOT Increase - Number of Reports [3]: >= 4 | SGPT Increase - Activity Score [4]: Active | SGPT Increase - Index Value [4]: 63.7 | SGPT Increase - Number of Reports [4]: >= 4 | LDH Increase - Activity Score [5]: Active | LDH Increase - Index Value [5]: 54 | LDH Increase - Number of Reports [5]: >= 4 | GGT Increase - Activity Score [6]: Inactive | GGT Increase - Index Value [6]: 0 | GGT Increase - Number of Reports [6]: < 4

O=C(O)CCCCCCCC(=O)O [AZELAIC ACID]
Composite Activity - Active [1]: 0 | Composite Activity - Marginal [1]: 0 | Composite Activity - Score [1]: Inactive | Alkaline Phosphatase Increase - Activity Score [2]: Inactive | Alkaline Phosphatase Increase - Index Value [2]: 0 | Alkaline Phosphatase Increase - Number of Reports [2]: < 4 | SGOT Increase - Activity Score [3]: Inactive | SGOT Increase - Index Value [3]: 0 | SGOT Increase - Number of Reports [3]: < 4 | SGPT Increase - Activity Score [4]: Inactive | SGPT Increase - Index Value [4]: 0 | SGPT Increase - Number of Reports [4]: < 4 | LDH Increase - Activity Score [5]: Inactive | LDH Increase - Index Value [5]: 0 | LDH Increase - Number of Reports [5]: < 4 | GGT Increase - Activity Score [6]: Inactive | GGT Increase - Index Value [6]: 0 | GGT Increase - Number of Reports [6]: < 4

C[C@]12CC[C@H]3[C@@H](CCC4=CC(=O)CC[C@@]43C)[C@@H]1CC[C@@H]2OC(=O)CCC1CCCC1 [TESTOSTERONE CYPIONATE]
Composite Activity - Active [1]: 0 | Composite Activity - Marginal [1]: 0 | Composite Activity - Score [1]: Inactive | Alkaline Phosphatase Increase - Activity Score [2]: Inactive | Alkaline Phosphatase Increase - Index Value [2]: 0 | Alkaline Phosphatase Increase - Number of Reports [2]: < 4 | SGOT Increase - Activity Score [3]: Inactive | SGOT Increase - Index Value [3]: 4.8 | SGOT Increase - Number of Reports [3]: < 4 | SGPT Increase - Activity Score [4]: Inactive | SGPT Increase - Index Value [4]: 7.2 | SGPT Increase - Number of Reports [4]: < 4 | LDH Increase - Activity Score [5]: Inactive | LDH Increase - Index Value [5]: 2.4 | LDH Increase - Number of Reports [5]: < 4 | GGT Increase - Activity Score [6]: Inactive | GGT Increase - Index Value [6]: 4.8 | GGT Increase - Number of Reports [6]: < 4

Nc1ccn([C@@H]2O[C@H](CO)[C@@H](O)C2(F)F)c(=O)n1 [GEMCITABINE]
Composite Activity - Active [1]: 0 | Composite Activity - Marginal [1]: 0 | Composite Activity - Score [1]: Inactive | Alkaline Phosphatase Increase - Activity Score [2]: Inactive | Alkaline Phosphatase Increase - Index Value [2]: 4.3 | Alkaline Phosphatase Increase - Number of Reports [2]: < 4 | SGOT Increase - Activity Score [3]: Inactive | SGOT Increase - Index Value [3]: 1.4 | SGOT Increase - Number of Reports [3]: < 4 | SGPT Increase - Activity Score [4]: Inactive | SGPT Increase - Index Value [4]: 1.4 | SGPT Increase - Number of Reports [4]: < 4 | LDH Increase - Activity Score [5]: Inactive | LDH Increase - Index Value [5]: 1.4 | LDH Increase - Number of Reports [5]: < 4 | GGT Increase - Activity Score [6]: Inactive | GGT Increase - Index Value [6]: 1.4 | GGT Increase - Number of Reports [6]: < 4

CO/N=C(\C(=O)N[C@@H]1C(=O)N2C(C(=O)O)=C(COC(C)=O)CS[C@H]12)c1csc(N)n1 [CEFOTAXIME]
Composite Activity - Active [1]: 1 | Composite Activity - Marginal [1]: 0 | Composite Activity - Score [1]: Inactive | Alkaline Phosphatase Increase - Activity Score [2]: Inactive | Alkaline Phosphatase Increase - Index Value [2]: 0.3 | Alkaline Phosphatase Increase - Number of Reports [2]: < 4 | SGOT Increase - Activity Score [3]: Active | SGOT Increase - Index Value [3]: 4.7 | SGOT Increase - Number of Reports [3]: >= 4 | SGPT Increase - Activity Score [4]: Inactive | SGPT Increase - Index Value [4]: 2 | SGPT Increase - Number of Reports [4]: < 4 | LDH Increase - Activity Score [5]: Inactive | LDH Increase - Index Value [5]: 0 | LDH Increase - Number of Reports [5]: < 4 | GGT Increase - Activity Score [6]: Inactive | GGT Increase - Index Value [6]: 0 | GGT Increase - Number of Reports [6]: < 4

CN(C/C=C/c1ccccc1)Cc1cccc2ccccc12 [NAFTIFINE]
Composite Activity - Active ([1]; Liver): 0 | Composite Activity - Marginal ([1]; Liver): 0 | Composite Activity - Score ([1]; Liver): Inactive | Alkaline Phosphatase Increase - Activity Score [2]: Inactive | Alkaline Phosphatase Increase - Index Value [2]: 0 | Alkaline Phosphatase Increase - Number of Reports [2]: < 4 | SGOT Increase - Activity Score [3]: Inactive | SGOT Increase - Index Value [3]: 0 | SGOT Increase - Number of Reports [3]: < 4 | SGPT Increase - Activity Score [4]: Inactive | SGPT Increase - Index Value [4]: 0 | SGPT Increase - Number of Reports [4]: < 4 | LDH Increase - Activity Score [5]: Inactive | LDH Increase - Index Value [5]: 0 | LDH Increase - Number of Reports [5]: < 4 | GGT Increase - Activity Score [6]: Inactive | GGT Increase - Index Value [6]: 0 | GGT Increase - Number of Reports [6]: < 4

O=c1[nH]cnc2c1ncn2[C@H]1CC[C@@H](CO)O1 [DIDANOSINE]
Composite Activity - Active [1]: 3 | Composite Activity - Marginal [1]: 1 | Composite Activity - Score [1]: Active | Alkaline Phosphatase Increase - Activity Score [2]: Active | Alkaline Phosphatase Increase - Index Value [2]: 14.5 | Alkaline Phosphatase Increase - Number of Reports [2]: >= 4 | SGOT Increase - Activity Score [3]: Active | SGOT Increase - Index Value [3]: 13.7 | SGOT Increase - Number of Reports [3]: >= 4 | SGPT Increase - Activity Score [4]: Active | SGPT Increase - Index Value [4]: 12.9 | SGPT Increase - Number of Reports [4]: >= 4 | LDH Increase - Activity Score [5]: Marginally Active | LDH Increase - Index Value [5]: 3 | LDH Increase - Number of Reports [5]: >= 4 | GGT Increase - Activity Score [6]: Inactive | GGT Increase - Index Value [6]: 1.5 | GGT Increase - Number of Reports [6]: < 4

CCc1c2c(nc3ccc(OC(=O)N4CCC(N5CCCCC5)CC4)cc13)-c1cc3c(c(=O)n1C2)COC(=O)[C@]3(O)CC [IRINOTECAN]
Composite Activity - Active [1]: 0 | Composite Activity - Marginal [1]: 0 | Composite Activity - Score [1]: Inactive | Alkaline Phosphatase Increase - Activity Score [2]: Inactive | Alkaline Phosphatase Increase - Index Value [2]: 4.1 | Alkaline Phosphatase Increase - Number of Reports [2]: < 4 | SGOT Increase - Activity Score [3]: Inactive | SGOT Increase - Index Value [3]: 6.1 | SGOT Increase - Number of Reports [3]: < 4 | SGPT Increase - Activity Score [4]: Inactive | SGPT Increase - Index Value [4]: 6.1 | SGPT Increase - Number of Reports [4]: < 4 | LDH Increase - Activity Score [5]: Inactive | LDH Increase - Index Value [5]: 4.1 | LDH Increase - Number of Reports [5]: < 4 | GGT Increase - Activity Score [6]: Inactive | GGT Increase - Index Value [6]: 2 | GGT Increase - Number of Reports [6]: < 4

CCOC(=O)Nc1ccc2c(c1)N(C(=O)CCN1CCOCC1)c1ccccc1S2 [MORICIZINE]
Composite Activity - Active [1]: 1 | Composite Activity - Marginal [1]: 0 | Composite Activity - Score [1]: Inactive | Alkaline Phosphatase Increase - Activity Score [2]: Inactive | Alkaline Phosphatase Increase - Index Value [2]: 3.4 | Alkaline Phosphatase Increase - Number of Reports [2]: < 4 | SGOT Increase - Activity Score [3]: Active | SGOT Increase - Index Value [3]: 13.7 | SGOT Increase - Number of Reports [3]: >= 4 | SGPT Increase - Activity Score [4]: Inactive | SGPT Increase - Index Value [4]: 3.4 | SGPT Increase - Number of Reports [4]: < 4 | LDH Increase - Activity Score [5]: Inactive | LDH Increase - Index Value [5]: 3.4 | LDH Increase - Number of Reports [5]: < 4 | GGT Increase - Activity Score [6]: Inactive | GGT Increase - Index Value [6]: 0 | GGT Increase - Number of Reports [6]: < 4

O=C(O)[C@@H](S)[C@@H](S)C(=O)O
Composite Activity - Active [1]: 4 | Composite Activity - Marginal [1]: 0 | Composite Activity - Score [1]: Active | Alkaline Phosphatase Increase - Activity Score [2]: Active | Alkaline Phosphatase Increase - Index Value [2]: 175.4 | Alkaline Phosphatase Increase - Number of Reports [2]: >= 4 | SGOT Increase - Activity Score [3]: Active | SGOT Increase - Index Value [3]: 175.4 | SGOT Increase - Number of Reports [3]: >= 4 | SGPT Increase - Activity Score [4]: Active | SGPT Increase - Index Value [4]: 131.6 | SGPT Increase - Number of Reports [4]: < 4 | LDH Increase - Activity Score [5]: Inactive | LDH Increase - Index Value [5]: 43.9 | LDH Increase - Number of Reports [5]: < 4 | GGT Increase - Activity Score [6]: Active | GGT Increase - Index Value [6]: 87.7 | GGT Increase - Number of Reports [6]: < 4

Cn1c(=O)c2[nH]cnc2n(C)c1=O.O [THEOPHYLLINE]
Composite Activity - Active [1]: 0 | Composite Activity - Marginal [1]: 0 | Composite Activity - Score [1]: Inactive | Alkaline Phosphatase Increase - Activity Score [2]: Inactive | Alkaline Phosphatase Increase - Index Value [2]: 0 | Alkaline Phosphatase Increase - Number of Reports [2]: < 4 | SGOT Increase - Activity Score [3]: Inactive | SGOT Increase - Index Value [3]: 0 | SGOT Increase - Number of Reports [3]: < 4 | SGPT Increase - Activity Score [4]: Inactive | SGPT Increase - Index Value [4]: 0 | SGPT Increase - Number of Reports [4]: < 4 | LDH Increase - Activity Score [5]: Inactive | LDH Increase - Index Value [5]: 0 | LDH Increase - Number of Reports [5]: < 4 | GGT Increase - Activity Score [6]: Inactive | GGT Increase - Index Value [6]: 0 | GGT Increase - Number of Reports [6]: < 4

CC[C@@H]1C(=O)OC[C@@H]1Cc1cncn1C [PILOCARPINE]
Composite Activity - Active [1]: 0 | Composite Activity - Marginal [1]: 0 | Composite Activity - Score [1]: Inactive | Alkaline Phosphatase Increase - Activity Score [2]: Inactive | Alkaline Phosphatase Increase - Index Value [2]: 0 | Alkaline Phosphatase Increase - Number of Reports [2]: < 4 | SGOT Increase - Activity Score [3]: Inactive | SGOT Increase - Index Value [3]: 4.6 | SGOT Increase - Number of Reports [3]: < 4 | SGPT Increase - Activity Score [4]: Inactive | SGPT Increase - Index Value [4]: 4.6 | SGPT Increase - Number of Reports [4]: < 4 | LDH Increase - Activity Score [5]: Inactive | LDH Increase - Index Value [5]: 0 | LDH Increase - Number of Reports [5]: < 4 | GGT Increase - Activity Score [6]: Inactive | GGT Increase - Index Value [6]: 0 | GGT Increase - Number of Reports [6]: < 4
